# Measurements as given in US20250320233A1, “ARGINASE INHIBITOR AND PHARMACEUTICAL COMPOSITION COMPRISING THE SAME” (Daewoong Pharmaceutical Co., Ltd., priority 2022, published 2025).
# pEC50, pIC50: −log10 of the molar value. Where a name gives a salt, the structure may show the parent alone.
# System: Primary Peripheral Blood Mononuclear Cells (PBMC)
# Test: PBMC activity evaluation test (T cell proliferation suppressed by synthetic arginase 1, CellTiter-Glo)
# Type: cell-based
# Conditions: PBMC with α-CD3/α-CD28 antibodies and synthetic arginase 1, 72 hours, CellTiter-Glo luminescence; read-out: EC50
# Procedure: A Primary Peripheral Blood Mononuclear Cells (PBMC) activity test was performed for the compound according to the present disclosure. […] To evaluate the proliferation of T cells, the CellTiter-Glo® Luminescent Cell Viability (Promega, Catalog #G7571) evaluation method was used, which can confirm the proliferation of cells by quantifying the ATP present in the cells. In addition to the compound according to the present disclosure, the compound CB-1158 (Numidargistat) was also tested together for comparison.
# Specifically, α-CD3 antibody was coated on a clear 96-well microplate. 1×10^5 PBMC cells were placed in each well. RPMI media (10% FBS, 1% penicillin/streptomycin) was used as the cell culture medium. α-CD28 antibody and synthetic arginase 1 were added to each well. The compounds prepared in Examples were treated at different concentrations (2, 1, 0.5, 0.25, 0.125, 0.0625, 0.03125 μM). After incubating for 72 hours, 50 μL of cells from each well were transferred to a white 96-well microplate, and mixed with 50 μL of CellTiter-Glo® solution.
# After performing the reaction at room temperature for 10 minutes in the state where light was blocked, the luminescence was measured. The measurement results for each compound were calculated using Excel, and the EC50 value was calculated using GraphPad Prism software.
row,SMILES,pEC50
1,"O=C(O)[C@]1(CCCCB(O)O)NC[C@@H]2NCC[C@@H]21 [Example 1, (3aS,4R,6aR)-4-(4-boronobutyl)octahydropyrrolo[3,4-b]pyrrole-4-carboxylic acid dihydrochloride]",> 7.00

# Same assay, conditions: PBMC, 72 h
row,SMILES,pEC50
1,"C[C@H](N)C(=O)N1C[C@H](CCCB(O)O)[C@](N)(C(=O)O)C1 [CB-1158 (Numidargistat), Numidargistat, reference compound]",6.30 to 7.00

# Target: Arginase-1 (Homo sapiens (Human), UniProt P05089)
# Test: Arginase inhibitory activity test
# Type: biochemical
# Conditions: Arginase-1, L-arginine substrate, absorbance at 450 nm
# Procedure: An arginase inhibitory activity test was conducted for the compound according to the present disclosure.
# Specifically, all reagents required for evaluation were diluted in a reaction buffer (8 mM NAHPO4, 2 mM KH2PO4, pH 7.5, 137 mM NaCl, 2.7 mM KCl, and 0.05% Tween-20), and the compound was dissolved in DMSO and then diluted, and then diluted in the reaction buffer to conform to the desired concentration. 10 μL of the compound and 10 μL of 30 nM Arginase-1 were mixed in a transparent 96-well plate (SPL), and incubated at room temperature for 1 hour or more. After that, 10 μL of 15 mM L-arginine and 3 mM MnCl2 were added to the plate, and then reacted at room temperature for 30 minutes or more. Finally, 30 μL of a 1:1 mixture of reagent A (10 mM o-phthaldialdehyde, 0.4% polyoxyethylene lauryl ether, and 1.8M sulfuric acid in DW) and reagent B (1.3 mM primaquine diphosphate, 0.4% polyoxyethylene lauryl ether, and 3.6 M sulfuric acid in DW) was added to complete the enzyme reaction, and incubated at room temperature for 1 hour or more. The plate after incubation was measured for absorbance at 450 nm using a Flexstation3 multi-mode microplate reader (Molecular Devices).
# The background control (BC) reading value was subtracted from all reading values to obtain the ΔOD for each reading value. The ΔOD of the enzyme control (EC) was set to the maximum value, and the % relative Arginase-1 activity of each compound (S) was calculated using the following Equation, and the IC50 value of the compound was determined using PRISM (GraphPad software).
# Arginase-1, sequence (P05089 whole entry, species assumed): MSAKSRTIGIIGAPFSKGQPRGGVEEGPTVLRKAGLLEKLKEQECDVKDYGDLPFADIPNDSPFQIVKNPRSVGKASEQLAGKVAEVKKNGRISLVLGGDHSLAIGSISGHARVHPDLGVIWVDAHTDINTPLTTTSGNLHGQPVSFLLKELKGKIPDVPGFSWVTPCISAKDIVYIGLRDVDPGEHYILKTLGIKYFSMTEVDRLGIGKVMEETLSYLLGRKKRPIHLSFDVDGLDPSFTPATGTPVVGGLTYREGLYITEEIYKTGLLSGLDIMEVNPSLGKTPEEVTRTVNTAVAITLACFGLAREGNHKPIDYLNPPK
row,pIC50,SMILES
1,< 6.00,"CC(C)[C@H](N)C(=O)N1CC[C@H]2[C@@H]1CN[C@@]2(CCCCB(O)O)C(=O)O [Example 6, (3aS,4R,6aR)-1-((S)-2-amino-3-methylbutanoyl)-4-(4-boronobutyl)octahydropyrrolo[3,4-b]pyrrole-4-carboxylic acid dihydrochloride]"
2,6.00 to 7.00,"O=C([C@@H]1CCCN1)N1CC[C@H]2[C@@H]1CN[C@@]2(CCCCB(O)O)C(=O)O [Example 4, (3aS,4R,6aR)-4-(4-boronobutyl)-1-((S)-pyrrolidine-2-carbonyl)octahydropyrrolo[3,4-b]pyrrole-4-carboxylic acid dihydrochloride]"
3,> 7.00,"CN1CC[C@H]2[C@@H]1CN[C@@]2(CCCCB(O)O)C(=O)O [Example 27, (3aS,4R,6aR)-4-(4-boronobutyl)-1-methyloctahydropyrrolo[3,4-b]pyrrole-4-carboxylic acid hydrochloride]"
4,6.00 to 7.00,"CNCCN1CC[C@H]2[C@@H]1CN[C@@]2(CCCCB(O)O)C(=O)O [Example 28, (3aS,4R,6aR)-4-(4-boronobutyl)-1-(2-(methylamino)ethyl)octahydropyrrolo[2,3-c]pyrrole-4-carboxylic acid hydrochloride]"
5,< 6.00,"C[C@@H](N)C(=O)N1CC[C@H]2[C@@H]1CN[C@@]2(CCCCB(O)O)C(=O)O [Example 9, (3aS,4R,6aR)-1-((R)-2-aminopropanoyl)-4-(4-boronobutyl)octahydropyrrolo[3,4-b]pyrrole-4-carboxylic acid dihydrochloride]"
6,< 6.00,"CC(C)C[C@H](N)C(=O)N1CC[C@H]2[C@@H]1CN[C@@]2(CCCCB(O)O)C(=O)O [Example 7, (3aS,4R,6aR)-1-((S)-2-amino-4-methylpentanoyl)-4-(4-boronobutyl)octahydropyrrolo[3,4-b]pyrrole-4-carboxylic acid dihydrochloride]"
7,6.00 to 7.00,"C[C@H](N)C(=O)N1CC[C@H]2[C@@H]1CN[C@@]2(CCCCB(O)O)C(=O)O [Example 2, (3aS,4R,6aR)-1-((S)-2-aminopropanoyl)-4-(4-boronobutyl)octahydropyrrolo[3,4-b]pyrrole-4-carboxylic acid dihydrochloride]"
8,6.00 to 7.00,"N[C@@H](Cc1ccccc1)C(=O)N1CC[C@H]2[C@@H]1CN[C@@]2(CCCCB(O)O)C(=O)O [Example 3, (3aS,4R,6aR)-1-((S)-2-amino-3-phenylpropanoyl)-4-(4-boronobutyl)octahydropyrrolo[3,4-b]pyrrole-4-carboxylic acid dihydrochloride]"
9,6.00 to 7.00,"C[C@H](O)[C@@H](N)C(=O)N1CC[C@H]2[C@@H]1CN[C@@]2(CCCCB(O)O)C(=O)O [Example 5, (3aS,4R,6aR)-1-((2R,3S)-2-amino-3-hydroxybutanoyl)-4-(4-boronobutyl)octahydropyrrolo[3,4-b]pyrrole-4-carboxylic acid dihydrochloride]"

row,SMILES,pIC50
1,"O=C(O)[C@]1(CCCCB(O)O)NC[C@@H]2NCC[C@@H]21 [Example 1, (3aS,4R,6aR)-4-(4-boronobutyl)octahydropyrrolo[3,4-b]pyrrole-4-carboxylic acid dihydrochloride]",> 7.00
